In PubChem BioAssay (NCI):
“And” between values parts separate entries of the source, which are not always exact repeats. Equal entries are not always repeated.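 96-well plates; 48 h exposure; 5 concentrations. Endpoints by linear interpolation between flanking doses. Not reached: highest tested concentration assigned. GI50 = concentration required for 50% inhibition of growth. TGI: concentration producing complete growth inhibition.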

Experiments:
Test in all cases: NCI tumour cell line growth inhibition, 48 h
TK-10 renal = system: TK-10 renal
NCI-H226 lung = system: NCI-H226 lung
OVCAR-8 ovarian = system: OVCAR-8 ovarian
SK-OV-3 ovarian = system: SK-OV-3 ovarian
SN12C renal = system: SN12C renal
NCI-H23 lung = system: NCI-H23 lung
UACC-257 melanoma = system: UACC-257 melanoma
HCT-116 colon = system: HCT-116 colon
NCI-H460 lung = system: NCI-H460 lung
EKVX NSCLC = system: EKVX NSCLC

Row | SMILES | GI50 (TK-10 renal) [µM] | TGI (TK-10 renal) [µM] | GI50 (NCI-H226 lung) [µM] | TGI (NCI-H226 lung) | GI50 (OVCAR-8 ovarian) [µM] | TGI (OVCAR-8 ovarian) | GI50 (SK-OV-3 ovarian) [µM] | TGI (SK-OV-3 ovarian) | GI50 (SN12C renal) [µM] | TGI (SN12C renal) [µM] | GI50 (NCI-H23 lung) [µM] | TGI (NCI-H23 lung) | GI50 (UACC-257 melanoma) [µM] | TGI (UACC-257 melanoma) | TGI (HCT-116 colon) | TGI (NCI-H460 lung) | TGI (EKVX NSCLC) | GI50 (HCT-116 colon) [µM] | GI50 (NCI-H460 lung) [µM] | GI50 (EKVX NSCLC) [µM]
1 | CN1CCN(c2ccc3nc(-c4ccc(OCCCN5C(=O)c6cccc7cccc(c67)C5=O)cc4)[nH]c3c2)CC1 | 8.54 | > 71.2 | 19.8 | 51.2 µM | 2.38 | 5.48 µM | 10.8 | 37.5 µM | 15.6 | 34.8 | 8.1 | 55.9 µM | 24.8 | 51.8 µM |  |  |  |  |  | 
2 | Cc1c2cc[n+](C)cc2c(COC2OC(CO)C(O)C2O)c2c3ccccc3n(C)c12 (stereo unspecified) |  |  |  | > 94.1 µM |  | > 100 µM |  | 99.1 µM |  | 89.1 |  | > 100 µM |  | > 100 µM | > 100 µM | > 100 µM | > 100 µM |  |  | 
3 | NC(=O)c1cc2ccccc2c(N=Nc2ccccc2)c1O |  | > 100 |  | > 100 µM |  | > 100 µM |  | > 100 µM |  | > 100 |  | > 100 µM |  | > 100 µM | > 100 µM |  | > 100 µM |  |  | 
4 | CC(=O)OC1CC2(O)C(CCC3(C)C(c4ccc(=O)oc4)CCC32O)C2(C)CCC(O)C=C12 (stereo unspecified) |  |  | 0.0808 | 0.184 µM and 0.183 µM | 0.0375 | 0.0926 µM and 0.0472 µM | 0.0435 | 0.104 µM and 0.117 µM | 0.0375 |  | 0.0375 | 0.0311 µM and 0.0704 µM | 0.0375 | 0.105 µM and 0.823 µM | 0.104 µM and 0.0477 µM | 0.0271 µM and 0.0388 µM | 0.123 µM and 0.0477 µM | 0.00498 | 0.0375 | 0.0375
5 | CCC1=C(C)C2=NC1=CC1=NC(=C(CC)/C1=C/O)C=C1N=C3C(=C1C)C(=O)C(C(=O)OC)C3=C1NC(=C2)C(C)C1CCC(=O)OC (stereo unspecified) |  | > 100 |  | > 100 µM |  | > 100 µM |  | > 100 µM |  | > 100 |  | > 100 µM |  | > 100 µM | > 100 µM | > 100 µM | > 100 µM |  |  | 
6 | COc1cccc2c1C(=O)c1c(O)c3c(c(O)c1C2=O)C[C@@](O)(C(C)=O)C[C@@H]3OC1CC(N)C(O)C(C)O1 (stereo partly specified) | 0.144 |  |  |  | < 0.0201 |  | 0.0189 |  | < 0.0179 |  | < 0.0235 |  | 0.0685 |  |  |  |  | < 0.0135 |  | 0.266
7 | CC(=O)O[C@H]1C(=O)[C@]2(C)[C@@H](OC(=O)OCC(O)CO)C[C@H]3OC[C@@]3(OC(C)=O)[C@H]2[C@H](OC(=O)c2ccccc2)[C@]2(O)C[C@H](OC(=O)[C@H](O)[C@@H](NC(=O)c3ccccc3)c3ccccc3)C(C)=C1C2(C)C (stereo partly specified) |  | 70.8 |  |  |  | > 78.1 µM |  | > 100 µM |  | > 100 |  | > 43.2 µM |  | 22.2 µM | > 38.9 µM | 27.6 µM | > 100 µM |  |  | 
8 | CCP(=O)(CC)C(Cl)(Cl)C(=O)NC |  | > 100 |  | > 100 µM |  | > 100 µM |  | > 100 µM |  | > 100 |  | > 100 µM |  | > 100 µM | > 100 µM | > 100 µM |  |  |  | 
9 | O=c1c(-c2ccccc2)c[nH]c2cc([N+](=O)[O-])c(/C(Cl)=C/c3ccccc3)cc12 |  |  |  | 34 µM |  | 17.5 µM |  | > 100 µM |  | 43.7 |  | > 44.5 µM |  | 97.3 µM | 29.9 µM | 44.8 µM | 18.6 µM |  |  | 
10 | Cc1ccc(S(=O)(=O)OC2CN3CCC2CC3)cc1 (stereo unspecified) |  | > 100 |  | > 100 µM |  | > 100 µM |  | > 100 µM |  | > 100 |  | > 100 µM |  | > 100 µM | > 100 µM | > 100 µM | > 100 µM |  |  | 
11 | CC(C)(C)CC(C)(C)Cc1ccc(OCCOCC[N+](C)(C)Cc2ccccc2)cc1 | 2.83 | 12.7 | 1.79 | 6.72 µM |  |  | 2.71 | 12.4 µM | 1.57 | 3.04 | 1.45 | 3.8 µM | 1.51 | 3.18 µM |  | 3.45 µM |  |  | 1.8 | 
12 | N#Cc1ccc(Nc2nc3nc[nH]c3c(=O)[nH]2)cc1 |  | > 100 |  | > 100 µM |  | > 100 µM |  | > 100 µM |  | > 100 |  | > 100 µM |  | > 100 µM | > 100 µM | > 100 µM | > 100 µM |  |  | 
13 | CCCCN(CCCC)CC(=O)c1ccc2cc(Cl)c3ccccc3c2c1 |  | > 100 |  | 89.5 µM |  | 51.8 µM |  | > 100 µM |  | > 100 |  | > 100 µM |  | 98.9 µM | > 100 µM | 52.1 µM | > 100 µM |  |  | 
14 | O=C(CCN1CCCC1)Nc1ccc2c(NCCCCc3ccccc3)c3ccccc3nc2c1 | 1.4 | 2.86 | 1.15 | 2.49 µM |  |  |  |  | 1.08 | 2.39 | 1.1 | 2.4 µM | 1.8 | 3.5 µM |  | 1.76 µM | 2.73 µM |  | 0.53 | 1.39
15 | CCOC(=O)c1c(NC(=S)NCc2ccccc2)sc2c1CCN(C)C2 |  | > 100 |  | > 100 µM |  | > 100 µM |  |  |  | > 100 |  | > 100 µM |  | > 100 µM | > 100 µM | > 100 µM | > 100 µM |  |  | 
